Measurements as given in ChEMBL document CHEMBL4715724, “Novel 5-substituted-2-anilinoquinolines with 3-(morpholino or 4-methylpiperazin-1-yl)propoxy moiety as broad spectrum antiproliferative agents: Synthesis, cell based assays and kinase screening” (Bioorg Med Chem Lett, 2016).

Experiments:
[1] = target: Rho-associated protein kinase 1 (Homo sapiens) (UniProt Q13464); experiment: Inhibition of auto-activated recombinant N-terminal His6-tagged human ROCK1 (17 to 535 residues) expressed in baculovirus infected Sf21 insect cells at 10 uM incubated in presence of Mg/ATP relative to control
[2] = system: Panel CNS (Carcinoma cell lines); experiment: cells; type: functional; settings: Homo sapiens, time 48 hrs
Description: Growth inhibition of human Panel CNS (Carcinoma cell lines) incubated for 48 hrs by sulforhodamine B assay

[3] = target: Hepatocyte growth factor receptor (Homo sapiens) (UniProt P08581); experiment: Inhibition of recombinant N-terminal His6-tagged human MET (974 to end residues) expressed in baculovirus infected Sf21 insect cells at 10 uM relative to control
[4] = target: PI3-kinase p110-alpha/p85-alpha (Homo sapiens) (UniProt P27986+P42336); experiment: Inhibition of p110 alpha/p85 alpha (unknown origin) at 10 uM relative to control; type: protein-complex assay
[5] = target: Proto-oncogene tyrosine-protein kinase ROS (Homo sapiens) (UniProt P08922); experiment: Inhibition of recombinant N-terminal His6-tagged human ROS (1883 to end residues) expressed in baculovirus infected Sf21 insect cells at 10 uM relative to control
Proto-oncogene tyrosine-protein kinase ROS (Homo sapiens), sequence (P08922 whole entry): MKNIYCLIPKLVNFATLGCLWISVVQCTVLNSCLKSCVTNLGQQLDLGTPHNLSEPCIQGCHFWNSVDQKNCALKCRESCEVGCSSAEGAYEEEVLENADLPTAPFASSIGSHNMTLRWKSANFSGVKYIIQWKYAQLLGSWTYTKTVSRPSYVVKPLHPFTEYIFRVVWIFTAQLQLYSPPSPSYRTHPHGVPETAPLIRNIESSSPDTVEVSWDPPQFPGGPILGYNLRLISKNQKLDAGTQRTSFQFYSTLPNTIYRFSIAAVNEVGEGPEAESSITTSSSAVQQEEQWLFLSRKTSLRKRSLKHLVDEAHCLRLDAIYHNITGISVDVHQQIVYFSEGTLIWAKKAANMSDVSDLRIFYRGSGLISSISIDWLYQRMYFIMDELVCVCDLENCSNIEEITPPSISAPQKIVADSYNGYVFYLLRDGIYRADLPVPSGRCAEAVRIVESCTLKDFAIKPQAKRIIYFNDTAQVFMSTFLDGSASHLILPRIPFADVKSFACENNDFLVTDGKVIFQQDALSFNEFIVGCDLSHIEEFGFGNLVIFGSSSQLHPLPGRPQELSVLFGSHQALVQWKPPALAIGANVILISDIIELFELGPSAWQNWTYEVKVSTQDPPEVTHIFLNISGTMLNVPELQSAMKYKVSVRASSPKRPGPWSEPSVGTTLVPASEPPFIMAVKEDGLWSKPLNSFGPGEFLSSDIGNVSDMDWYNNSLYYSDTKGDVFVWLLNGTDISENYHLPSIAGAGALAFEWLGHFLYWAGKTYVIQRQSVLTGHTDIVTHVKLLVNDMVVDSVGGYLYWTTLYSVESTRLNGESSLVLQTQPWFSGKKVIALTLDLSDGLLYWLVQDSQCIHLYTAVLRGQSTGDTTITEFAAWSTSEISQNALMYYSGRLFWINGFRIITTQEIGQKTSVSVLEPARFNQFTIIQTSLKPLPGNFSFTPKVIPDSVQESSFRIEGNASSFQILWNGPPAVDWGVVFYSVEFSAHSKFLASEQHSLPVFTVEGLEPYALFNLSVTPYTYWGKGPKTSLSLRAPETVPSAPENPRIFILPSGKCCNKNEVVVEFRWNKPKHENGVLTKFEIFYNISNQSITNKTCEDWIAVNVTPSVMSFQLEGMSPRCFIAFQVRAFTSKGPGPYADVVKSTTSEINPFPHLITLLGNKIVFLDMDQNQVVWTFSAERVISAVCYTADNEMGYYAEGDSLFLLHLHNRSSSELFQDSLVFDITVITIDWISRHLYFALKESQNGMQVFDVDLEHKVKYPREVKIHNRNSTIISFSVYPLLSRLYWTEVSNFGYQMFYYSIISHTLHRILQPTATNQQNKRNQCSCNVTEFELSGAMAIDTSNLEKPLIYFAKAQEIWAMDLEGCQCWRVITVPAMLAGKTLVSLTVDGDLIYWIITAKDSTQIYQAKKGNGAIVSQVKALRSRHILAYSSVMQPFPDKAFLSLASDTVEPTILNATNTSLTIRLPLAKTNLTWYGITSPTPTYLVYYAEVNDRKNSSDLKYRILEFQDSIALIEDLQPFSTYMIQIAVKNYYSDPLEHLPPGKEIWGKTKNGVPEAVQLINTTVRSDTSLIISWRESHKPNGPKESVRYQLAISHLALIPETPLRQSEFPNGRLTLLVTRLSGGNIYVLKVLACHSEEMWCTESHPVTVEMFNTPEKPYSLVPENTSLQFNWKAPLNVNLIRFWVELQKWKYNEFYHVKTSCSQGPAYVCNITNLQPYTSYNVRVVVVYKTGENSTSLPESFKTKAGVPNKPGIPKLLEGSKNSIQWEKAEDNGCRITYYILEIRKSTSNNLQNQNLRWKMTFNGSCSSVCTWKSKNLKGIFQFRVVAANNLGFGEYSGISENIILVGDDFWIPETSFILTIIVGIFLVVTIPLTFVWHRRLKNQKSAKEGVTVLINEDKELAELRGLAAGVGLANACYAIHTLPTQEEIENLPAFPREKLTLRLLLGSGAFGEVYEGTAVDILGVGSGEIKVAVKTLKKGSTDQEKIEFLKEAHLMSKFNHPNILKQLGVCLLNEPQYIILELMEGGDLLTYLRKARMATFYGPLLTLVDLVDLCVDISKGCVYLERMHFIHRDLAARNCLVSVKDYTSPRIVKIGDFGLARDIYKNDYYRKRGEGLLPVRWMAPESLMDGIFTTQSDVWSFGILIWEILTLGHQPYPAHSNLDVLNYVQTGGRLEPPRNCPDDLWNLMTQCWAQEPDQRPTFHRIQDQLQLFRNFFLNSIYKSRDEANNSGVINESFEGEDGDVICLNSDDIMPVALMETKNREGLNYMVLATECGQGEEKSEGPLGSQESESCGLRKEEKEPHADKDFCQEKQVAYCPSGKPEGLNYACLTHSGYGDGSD

[6] = target: Angiopoietin-1 receptor (Homo sapiens) (UniProt Q02763); experiment: Inhibition of recombinant N-terminal His6-tagged human Tie2 (771 to end residues) expressed in baculovirus infected Sf21 insect cells at 10 uM relative to control
[7] = target: Ephrin type-B receptor 4 (Homo sapiens) (UniProt P54760); experiment: Inhibition of human EphB4 at 10 uM relative to control
[8] = target: Cytoplasmic tyrosine-protein kinase BMX (Homo sapiens) (UniProt P51813); experiment: Inhibition of N-terminal full length His6-tagged human recombinant BMX expressed in Sf21 cells assessed as residual activity at 10 uM relative to control
[9] = target: High affinity nerve growth factor receptor (Homo sapiens, UniProt P04629); experiment: Inhibition of recombinant N-terminal His6-tagged human TrkA (440 to end residues) expressed in baculovirus infected Sf21 insect cells
High affinity nerve growth factor receptor, sequence (P04629 whole entry): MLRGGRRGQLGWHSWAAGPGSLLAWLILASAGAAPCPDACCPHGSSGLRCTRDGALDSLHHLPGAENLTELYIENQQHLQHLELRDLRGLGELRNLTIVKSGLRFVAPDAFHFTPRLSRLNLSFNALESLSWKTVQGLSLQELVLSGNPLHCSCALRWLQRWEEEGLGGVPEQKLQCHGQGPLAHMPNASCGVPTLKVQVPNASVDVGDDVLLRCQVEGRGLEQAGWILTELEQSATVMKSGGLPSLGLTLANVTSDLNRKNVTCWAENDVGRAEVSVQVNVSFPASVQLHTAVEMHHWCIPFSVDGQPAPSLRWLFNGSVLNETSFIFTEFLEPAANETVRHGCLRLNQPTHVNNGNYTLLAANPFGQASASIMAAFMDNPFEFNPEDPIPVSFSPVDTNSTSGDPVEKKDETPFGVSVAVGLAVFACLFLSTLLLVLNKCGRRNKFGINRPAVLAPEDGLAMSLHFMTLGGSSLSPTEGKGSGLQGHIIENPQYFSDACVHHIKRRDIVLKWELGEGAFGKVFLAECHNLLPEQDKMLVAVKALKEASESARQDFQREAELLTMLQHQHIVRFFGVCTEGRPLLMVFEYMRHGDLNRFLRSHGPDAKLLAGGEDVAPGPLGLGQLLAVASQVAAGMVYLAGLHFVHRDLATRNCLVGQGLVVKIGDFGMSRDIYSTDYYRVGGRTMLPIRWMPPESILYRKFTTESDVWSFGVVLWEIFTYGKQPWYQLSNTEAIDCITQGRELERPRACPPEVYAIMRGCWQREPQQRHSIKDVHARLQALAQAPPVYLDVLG

NCI-H322M = experiment: cells; type: functional; settings: Homo sapiens, time 48 hrs
Description: Growth inhibition of human NCI-H322M cells incubated for 48 hrs by sulforhodamine B assay

KM12 = experiment: cells; type: functional; settings: Homo sapiens, time 48 hrs
Description: Growth inhibition of human KM12 cells incubated for 48 hrs by sulforhodamine B assay

[10] = target: Inhibitor of nuclear factor kappa-B kinase subunit alpha (Homo sapiens) (UniProt O15111); experiment: Inhibition of human IKKalpha at 10 uM relative to control
[11] = target: Fibroblast growth factor receptor 1 (Homo sapiens) (UniProt P11362); experiment: Inhibition of human FGFR1 assessed as residual activity at 10 uM relative to control
Fibroblast growth factor receptor 1 (Homo sapiens), sequence (P11362 22-822 limits assumed): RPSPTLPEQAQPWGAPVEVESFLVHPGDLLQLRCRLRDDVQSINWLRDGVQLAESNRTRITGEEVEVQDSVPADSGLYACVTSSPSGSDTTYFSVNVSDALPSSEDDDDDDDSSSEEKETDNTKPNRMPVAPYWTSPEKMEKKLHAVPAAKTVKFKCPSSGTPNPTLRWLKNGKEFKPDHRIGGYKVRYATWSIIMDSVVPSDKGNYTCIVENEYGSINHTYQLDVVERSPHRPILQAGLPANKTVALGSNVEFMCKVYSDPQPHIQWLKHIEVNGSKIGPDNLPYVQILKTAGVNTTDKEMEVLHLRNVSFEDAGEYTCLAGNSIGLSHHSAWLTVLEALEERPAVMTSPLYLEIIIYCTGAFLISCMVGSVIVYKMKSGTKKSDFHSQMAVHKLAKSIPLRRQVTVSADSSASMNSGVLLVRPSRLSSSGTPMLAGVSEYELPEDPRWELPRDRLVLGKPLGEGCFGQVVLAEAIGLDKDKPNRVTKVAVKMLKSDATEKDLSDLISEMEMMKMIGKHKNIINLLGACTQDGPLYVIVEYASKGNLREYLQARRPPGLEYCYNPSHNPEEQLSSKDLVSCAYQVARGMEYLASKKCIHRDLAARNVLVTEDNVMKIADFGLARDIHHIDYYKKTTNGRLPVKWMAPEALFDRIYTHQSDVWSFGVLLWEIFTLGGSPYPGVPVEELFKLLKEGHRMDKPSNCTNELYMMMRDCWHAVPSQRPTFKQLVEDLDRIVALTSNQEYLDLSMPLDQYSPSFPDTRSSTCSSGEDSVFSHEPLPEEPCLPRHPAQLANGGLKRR

SF-295 = experiment: cells; type: functional; settings: Homo sapiens, time 48 hrs
Description: Growth inhibition of human SF-295 cells incubated for 48 hrs by sulforhodamine B assay

UACC-62 = experiment: cells; type: functional; settings: Homo sapiens, time 48 hrs
Description: Growth inhibition of human UACC-62 cells incubated for 48 hrs by sulforhodamine B assay

UACC-257 = experiment: cells; type: functional; settings: Homo sapiens, time 48 hrs
Description: Growth inhibition of human UACC-257 cells incubated for 48 hrs by sulforhodamine B assay

IGROV-1 = experiment: cells; type: functional; settings: Homo sapiens, time 48 hrs
Description: Growth inhibition of human IGROV-1 cells incubated for 48 hrs by sulforhodamine B assay

[12] = target: Mitogen-activated protein kinase 1 (Homo sapiens) (UniProt P28482); experiment: Inhibition of recombinant full length N-terminal GST-tagged human MAPK2 expressed in Escherichia coli at 10 uM relative to control
Mitogen-activated protein kinase 1 (Homo sapiens), sequence (P28482 whole entry, the tested form may be a part): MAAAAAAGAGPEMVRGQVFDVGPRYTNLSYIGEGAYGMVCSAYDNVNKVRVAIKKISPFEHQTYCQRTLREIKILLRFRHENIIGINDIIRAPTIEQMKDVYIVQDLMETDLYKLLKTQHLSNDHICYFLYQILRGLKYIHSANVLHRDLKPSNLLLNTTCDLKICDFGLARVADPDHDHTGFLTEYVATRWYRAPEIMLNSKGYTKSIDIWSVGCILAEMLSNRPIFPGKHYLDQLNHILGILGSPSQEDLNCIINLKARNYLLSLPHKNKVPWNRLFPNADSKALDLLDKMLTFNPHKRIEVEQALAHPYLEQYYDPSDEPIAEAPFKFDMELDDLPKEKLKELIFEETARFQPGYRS

[13] = target: Fibroblast growth factor receptor 3 (Homo sapiens) (UniProt P22607); experiment: Inhibition of N-terminal His6-tagged human FGFR3 (447 to 761 residues) expressed in Sf21 cells assessed as residual activity at 10 uM relative to control
Fibroblast growth factor receptor 3 (Homo sapiens), sequence (P22607 23-806 limits assumed): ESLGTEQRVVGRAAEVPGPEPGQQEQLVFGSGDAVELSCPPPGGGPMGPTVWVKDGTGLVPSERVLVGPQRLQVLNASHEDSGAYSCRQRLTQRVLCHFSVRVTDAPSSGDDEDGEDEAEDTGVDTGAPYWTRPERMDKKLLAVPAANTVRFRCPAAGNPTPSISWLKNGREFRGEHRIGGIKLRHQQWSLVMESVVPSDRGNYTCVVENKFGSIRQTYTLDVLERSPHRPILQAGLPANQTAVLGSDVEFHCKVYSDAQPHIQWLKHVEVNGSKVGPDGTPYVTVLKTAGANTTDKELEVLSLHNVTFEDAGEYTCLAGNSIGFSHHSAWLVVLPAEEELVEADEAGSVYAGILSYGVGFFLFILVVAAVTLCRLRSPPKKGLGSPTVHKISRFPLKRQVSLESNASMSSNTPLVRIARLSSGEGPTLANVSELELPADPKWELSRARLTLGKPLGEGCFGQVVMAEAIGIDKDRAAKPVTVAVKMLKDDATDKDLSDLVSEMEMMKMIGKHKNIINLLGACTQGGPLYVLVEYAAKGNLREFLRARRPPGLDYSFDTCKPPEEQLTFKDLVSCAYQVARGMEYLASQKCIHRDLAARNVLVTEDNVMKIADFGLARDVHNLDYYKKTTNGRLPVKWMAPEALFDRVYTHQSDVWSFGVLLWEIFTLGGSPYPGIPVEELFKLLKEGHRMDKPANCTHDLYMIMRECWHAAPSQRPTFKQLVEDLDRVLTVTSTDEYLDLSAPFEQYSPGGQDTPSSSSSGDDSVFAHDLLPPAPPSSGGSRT

[14] = system: PI3-kinase p110-alpha/p85-alpha (Homo sapiens), P27986+P42336 [E542K]; experiment: Inhibition of p110alpha/p85alpha E542K mutant (unknown origin) at 10 uM relative to control; type: protein-complex assay
LOX IMVI = experiment: cells; type: functional; settings: Homo sapiens, time 48 hrs
Description: Growth inhibition of human LOX IMVI cells incubated for 48 hrs by sulforhodamine B assay

[15] = system: PI3-kinase p110-alpha/p85-alpha (Homo sapiens), P27986+P42336 [E545K]; experiment: Inhibition of p110alpha/p85alpha E545K mutant (unknown origin) at 10 uM relative to control; type: protein-complex assay
OVCAR-4 = experiment: cells; type: functional; settings: Homo sapiens, time 48 hrs
Description: Growth inhibition of human OVCAR-4 cells incubated for 48 hrs by sulforhodamine B assay

RXF 393 = experiment: cells; type: functional; settings: Homo sapiens, time 48 hrs
Description: Growth inhibition of human RXF 393 cells incubated for 48 hrs by sulforhodamine B assay

[16] = Cytotoxicity against human HFF-1 cells assessed as cell growth inhibition at 0.1 uM by MTT assay relative to control; type: cell-based; settings: read-out: GI
cells = type: functional; settings: Homo sapiens, Non-small cell lung cancer cell line; time 48 hrs
Description: Growth inhibition of human Non-small cell lung cancer cell line incubated for 48 hrs by sulforhodamine B assay

[17] = target: Mitogen-activated protein kinase 1 (Homo sapiens) (UniProt P28482); experiment: Inhibition of recombinant full length N-terminal GST-tagged human MAPK1 expressed in Escherichia coli at 10 uM relative to control
[18] = system: Panel NCI-60 (60 carcinoma cell lines); experiment: cells; type: functional; settings: Homo sapiens, time 48 hrs
Description: Growth inhibition of human Panel NCI-60 (60 carcinoma cell lines) incubated for 48 hrs by sulforhodamine B assay

[19] = target: Macrophage colony-stimulating factor 1 receptor (Homo sapiens) (UniProt P07333); experiment: Inhibition of recombinant N-terminal His6-tagged human FMS (538 to end residues) expressed in baculovirus infected Sf21 insect cells assessed as residual activity at 10 uM relative to control
OVCAR-3 = experiment: cells; type: functional; settings: Homo sapiens, time 48 hrs
Description: Growth inhibition of human OVCAR-3 cells incubated for 48 hrs by sulforhodamine B assay

[20] = target: Tyrosine-protein kinase ABL1 (Homo sapiens) (UniProt P00519); experiment: Inhibition of recombinant N-terminal His6-tagged human ABL (27 to end residues) expressed in baculovirus infected Sf21 insect cells assessed as residual activity at 10 uM relative to control
[21] = system: PI3-kinase p110-alpha/p85-alpha (Homo sapiens), P27986+P42336 [H1047R]; experiment: Inhibition of p110alpha/p85alpha H1047R mutant (unknown origin) at 10 uM relative to control; type: protein-complex assay
[22] = system: Panel colon (Carcinoma cell lines); experiment: cells; type: functional; settings: Homo sapiens, time 48 hrs
Description: Growth inhibition of human Panel colon (Carcinoma cell lines) incubated for 48 hrs by sulforhodamine B assay

NCI-H460 = experiment: cells; type: functional; settings: Homo sapiens, time 48 hrs
Description: Growth inhibition of human NCI-H460 cells incubated for 48 hrs by sulforhodamine B assay

[23] = target: Tyrosine-protein kinase SYK (Homo sapiens) (UniProt P43405); experiment: Inhibition of recombinant full length N-terminal His6-tagged human SYK expressed in baculovirus infected Sf21 insect cells at 10 uM relative to control
CCRF-CEM = experiment: cells; type: functional; settings: Homo sapiens, time 48 hrs
Description: Growth inhibition of human CCRF-CEM cells incubated for 48 hrs by sulforhodamine B assay

[24] = system: Panel leukemia (Carcinoma cell lines); experiment: cells; type: functional; settings: Homo sapiens, time 48 hrs
Description: Growth inhibition of human Panel leukemia (Carcinoma cell lines) incubated for 48 hrs by sulforhodamine B assay

[25] = target: Vascular endothelial growth factor receptor 3 (Homo sapiens) (UniProt P35916); experiment: Inhibition of N-terminal GST-tagged human FLT4 (800 to end residues) expressed in baculovirus infected Sf21 cells assessed as residual activity at 10 uM relative to control
[26] = read-out: LC50 (the source's name)

CN1CCN(CCCOc2cccc3nc(Nc4ccc(Cl)c(C(F)(F)F)c4)ccc23)CC1
inhibition [1]: < 60% | GI50 [2]: 1650 nM | TGI [2]: 3670 nM | CC50 [2, 26]: 6980 nM | inhibition [3]: < 60% | inhibition [4]: < 60% | inhibition [5]: < 60% | inhibition [6]: < 60% | inhibition [7]: < 60% | Activity [8]: < 60% | IC50 [9]: 2520 nM | GI50 (NCI-H322M): 1440 nM | GI50 (KM12): 1740 nM | inhibition [10]: < 60% | Activity [11]: < 60% | GI50 (SF-295): 1800 nM | GI50 (UACC-62): 1720 nM | GI50 (UACC-257): 1720 nM | GI50 (IGROV-1): 1850 nM | inhibition [12]: < 60% | Activity [13]: < 60% | inhibition [14]: < 60% | GI50 (LOX IMVI): 1560 nM | inhibition [15]: < 60% | GI50 (OVCAR-4): 2730 nM | GI50 (RXF 393): 1630 nM | inhibition at 0.1 µM [16]: 6.07% | GI50 (cells): 1680 nM | LC50 (50% lethal concentration) (cells): 10100 nM | TGI (cells): 3660 nM | inhibition [17]: < 60% | GI50 [18]: 1620 nM | TGI [18]: 3470 nM | CC50 [18, 26]: 8130 nM | Activity [19]: < 60% | GI50 (OVCAR-3): 1810 nM | Activity [20]: < 60% | inhibition [21]: < 60% | GI50 [22]: 1580 nM | TGI [22]: 3170 nM | CC50 [22, 26]: 6270 nM | GI50 (NCI-H460): 1720 nM | inhibition [23]: < 60% | GI50 (CCRF-CEM): 1210 nM | GI50 [24]: 1380 nM | LC50 (50% lethal concentration) [24]: 7780 nM | TGI [24]: 3480 nM | Activity [25]: < 60%
